According to PubChem BioAssay (NCI):
Several values for one entry are separate records, joined by “and”; a condition that tells them apart may be missing. Equal entries are not always repeated.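 Grown in 96-well plates, cells were treated for 48 hours with each compound at five concentrations. Insufficient inhibition: endpoint recorded as highest concentration tested. GI50 is the concentration that inhibits growth by half. TGI: concentration producing complete growth inhibition.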

Columns and labels:
Test in all cases: growth of human tumour cells (NCI), 48 h
OVCAR-5 ovarian = system: OVCAR-5 ovarian
A549 NSCLC = system: A549 NSCLC
CAKI-1 renal = system: CAKI-1 renal
PC-3 prostate = system: PC-3 prostate
OVCAR-4 ovarian = system: OVCAR-4 ovarian
SR leukemia = system: SR leukemia
KM12 colon = system: KM12 colon
UO-31 renal = system: UO-31 renal
HCT-15 colon = system: HCT-15 colon
HL-60(TB) leukemia = system: HL-60(TB) leukemia

Row | Compound | TGI (OVCAR-5 ovarian) [µM] | TGI (A549 NSCLC) [µM] | TGI (CAKI-1 renal) [µM] | TGI (PC-3 prostate) [µM] | TGI (OVCAR-4 ovarian) | TGI (SR leukemia) [µM] | TGI (KM12 colon) [µM] | TGI (UO-31 renal) | TGI (HCT-15 colon) [µM] | TGI (HL-60(TB) leukemia) | GI50 (HL-60(TB) leukemia) | GI50 (OVCAR-5 ovarian) | GI50 (A549 NSCLC) | GI50 (KM12 colon) | GI50 (UO-31 renal)
1 | COc1ccc(-c2cc(-c3ccncc3)nc(N)c2-c2ccc(F)cc2)cc1 | > 100 | > 100 | > 100 | > 100 | > 100 µM | 38.7 | > 100 | > 100 µM | > 100 |  |  |  |  |  | 
2 | COC(=O)CCC(=O)c1ccc2c(c1)CC1(Cc3ccccc3C1)C2 | > 100 | > 100 |  | > 100 | > 100 µM | 34 | > 100 | 80.3 µM |  |  |  |  |  |  | 
3 | O=Cc1ccc(Oc2c3ccccc3nc3ccccc23)cc1 | 16.7 | 49 | 22.3 | 20.1 | 16.3 µM | 7.19 | 58.7 |  | 19.5 |  |  |  |  |  | 
4 | Cc1cccc2c1CC1(Cc3c(C)cccc3C1=O)C2=O | > 100 | > 100 | > 100 | > 100 | > 100 µM | > 100 |  | > 100 µM | > 100 | > 100 µM |  |  |  |  | 
5 | Cc1csc(CP(=O)(OC(C)C)OC(C)C)n1 | > 100 | > 100 | > 100 | > 100 | > 100 µM | > 100 |  | > 100 µM | > 100 | > 100 µM |  |  |  |  | 
6 | COc1ccc(-c2c(C#N)c(N)n(C3OC(COC(C)=O)C(OC(C)=O)C(OC(C)=O)C3OC(C)=O)c(=S)c2C#N)cc1 (stereo not given) | > 100 | > 100 | > 100 | > 100 | > 100 µM and 55.6 µM |  | > 100 | > 100 µM and 38.9 µM | > 100 | > 100 µM and 48.5 µM | > 100 µM and 27.9 µM | > 100 µM and 38.4 µM | 36.2 µM and > 100 µM | > 100 µM and 36.8 µM | 42.4 µM and 16.7 µM
7 | O=c1n(CC2CO2)c2ccccc2n1CC1CS1 (stereo not given) | > 100 | > 100 | > 100 |  | > 100 µM | > 100 | > 100 | > 100 µM | > 100 | 87.7 µM |  |  |  |  | 
8 | O=[N+]([O-])c1cnccc1-n1nnc2ccccc21 | 73.4 | > 90.1 |  |  | > 60.5 µM |  | 40.7 | > 86.2 µM | 66.1 | > 54.7 µM |  |  |  |  | 
9 | CSc1nc(NC2OC(CO)C(O)C(O)C2O)c(N)c(=O)[nH]1 (stereo not given) | > 100 | > 100 |  |  | > 100 µM |  | > 100 | > 100 µM | > 100 | > 100 µM |  |  |  |  | 
10 | C=CCOC1=C(OC(C)=O)C(C2COC(C)(C)O2)OC1=O (stereo not given) | 32.4 | 69.4 | 3.89 | > 100 | 45.9 µM |  | 44.3 | 33 µM | 29.8 | 40.3 µM |  |  |  |  | 
11 | COC1=C2C[C@](OC)(C#CC=CC#CC2O)CC1(C)C (stereo not given in full) | > 100 | > 100 | > 100 | > 100 |  | > 100 | > 100 | 80.3 µM | > 100 | > 100 µM |  |  |  |  | 
12 | Cc1nc2ccccc2n1Cc1ccc(NC(=S)NC2CCCCC2)cc1 | > 100 | > 100 | > 100 | > 100 | > 100 µM |  | > 100 | > 100 µM | > 100 | > 100 µM |  |  |  |  | 
13 | CCOC1=NC(C(F)(F)F)(C(F)(F)F)N=C(/N=C(/N)N(C)C(C(C)C)P(=O)(OC(C)C)OC(C)C)O1 (stereo not given) | > 100 | > 100 | > 100 | > 100 |  | > 100 | > 100 | > 100 µM | > 100 | 80.1 µM |  |  |  |  | 
14 | COC(=O)C(Cc1cc(OC)c(OC)c(OC)c1)(NC(=O)c1ccccc1)P(=O)(OC)OC (stereo not given) | > 100 | > 100 | > 100 |  | > 100 µM | > 100 | > 100 | > 100 µM | > 100 | > 100 µM |  |  |  |  | 
15 | CC(=O)Nc1ccc(C(=O)NN2C(=O)C(Cl)C2/C=C/c2ccccc2)cc1 (stereo not given) | > 100 | > 100 |  |  |  | > 100 | > 100 | > 100 µM |  | > 100 µM |  |  |  |  | 
16 | COC(=O)CC(c1ccccc1)C(C#N)(OP1(=O)OC(c2ccccc2)C(C)N1C)c1ccccc1 (stereo not given) | > 100 | > 100 | > 100 | > 100 | > 100 µM |  | > 100 | > 100 µM | > 100 | 72.6 µM |  |  |  |  | 
17 | CC(C)[Si](CC1=CCCCC12C(=O)N(COCC[Si](C)(C)C)c1ccccc12)(C(C)C)C(C)C (stereo not given) | 80.9 | > 100 | > 100 | > 100 | > 100 µM | > 100 | > 100 | > 100 µM | > 100 |  |  |  |  |  | 
18 | COc1ccc(/C=C2\NC(=S)N(CN3CCOCC3)C2=O)cc1 | > 100 | > 100 |  | > 100 | > 100 µM | > 100 | > 100 | > 100 µM | > 100 |  |  |  |  |  | 
19 | COc1ccc(C2=Nn3c(C)nnc3S/C2=C\c2ccc(-c3ccc([N+](=O)[O-])cc3)o2)cc1 | 43 | 66.7 | 29.1 | 59.5 | > 100 µM |  | 40.1 | 29.8 µM | 27.7 | 73.5 µM |  |  |  |  | 
20 | O=C(CCCN1CCC(Nc2ccc(F)cc2)(c2nnnn2C2CCCCC2)CC1)c1ccc(F)cc1 | 29.7 | 31.6 |  | 51.8 | 25.5 µM | > 100 | 13.3 | 28.4 µM | 42.4 | 40.4 µM |  |  |  |  | 
21 | O=C(O)c1cc2sc(C(=O)O)cc2s1 | > 100 | > 100 | > 100 |  | > 100 µM | > 100 | > 100 |  | > 100 | > 100 µM |  |  |  |  | 
22 | CCOC(=O)C(C(=O)OCC)C(=S)NC1OC(COC(C)=O)C(OC(C)=O)C(OC(C)=O)C1OC(C)=O (stereo not given) | > 100 | > 100 | > 100 |  | > 100 µM | > 100 | > 100 | > 100 µM | > 100 | > 100 µM |  |  |  |  | 
23 | C[C@H](OC(=O)/C=C/c1ccc(O)c(O)c1)[C@H](C)OC(=O)/C=C/c1ccc(O)c(O)c1 | 33.1 | > 100 | > 100 | > 100 | > 100 µM | > 100 | > 100 | 21.9 µM | 25.9 |  |  |  |  |  | 
